Source: patent US20040253319A1, “Pharmaceutical compositions and method for alleviating side-effects of estrogen replacement therapy” (priority 2003, published 2004)

What was measured:
Format in all cases: cell-based
[1] = system: human smooth muscle cells; test: [3H]thymidine incorporation growth rate assay in human smooth muscle cells; conditions: estrogen 50-450 nM; FIG. 1
Experimental: Rationale: As described, the excessive growth rate of smooth muscle cells and cancer cells is directly related to accelerated atherosclerotic process and malignant tumor growth, respectively. Cultured cell growth rate is estimated according to de novo DNA synthesis assessed (i.e., [^3H]Thymidine Incorporation) according to the amount of Tritium-labeled metabolic precursor incorporated into cellular DNA during incubation period.
Human smooth muscle cells (Aortic-Cambrex Corporation, San Diego, Calif., Cat. No. CC-2571) were seeded at a cell concentration of 40,000 cells/ml (0.5 mL) per well in 24-well plates containing an appropriate growth medium (DMEM plus 10% FBS). After three hours incubation, cells were washed and fresh culture media containing tested compositions at indicated amounts were added Cells were allowed to culture for an additional 3-4 days. At the end of the culture, an aliquot of [^3H]thymidine (DuPont-NEN, Boston, Mass.) was added at a final concentration of 1 microCi/mL ([…]). After 24 hours, cells were washed in ice-cold Dulbecco's PBS, fixed in cold 10% TCA (trichloroacetic acid) for at least 0.5 hour, and incubated with 0.5 mL 0.1N sodium hydroxide for 2 hours at 37° C. Cell bound [^3H]thymidine was extracted in 0.1 N NaOH and measured in a liquid scintillation counter (LS 8000, Beckman Coulter). […]

[2] = system: human smooth muscle cells; test: Smooth muscle cell invasion assay (Matrigel); conditions: estrogen 100 nM; FIG. 2
Experimental: Elevated capacity of smooth muscle cells and cancer cells to invade extracellular matrix is directly related to the initiation of the atherosclerotic plaque formation and to metastasis formation, respectively. Cultured cell invasiveness is estimated according to the number of cells penetrating through a porous plastic membrane covered with natural extracellular matrix ([…], Beckton-Dickinson). Cultured cells were grown in 75 cm^2 flasks in culture medium containing 10% fetal bovine serum (FBS) to near complete confluency of 37° C. For the last 48 hours of incubation de novo synthesized cellular DNA was metabolically labelled by adding 1 microCi/mL [^3H]thymidine. Labelled cells were detached from plastic surface by treating cell layer with 0.025% trypsin in PBS. Cultured cells were seeded on the top surface of the bottom plastic membrane of the inserts placed in the wells of a 24 well plastic plate in 0.5 mL of culture medium containing 10% fetal bovine serum (FBS) at concentration 40,000 cell/mL. Insert bottom membrane has controlled size pores of 8 micron in diameter and is covered with the layer of Matrigel. […] Number of cells penetrated to the other side of the porous membrane was assessed according to amount of lower membrane surface-bound radioactivity as measured with scintillation counter (LS 8000, Beckman-Coulter).

[3] = system: interleukin-6 release in human smooth muscle cells; test: Interleukin-6 release in human smooth muscle cells; conditions: estrogen 100 nM; FIG. 3
Text: Rationale: Cytokine expression and its involvement in inflammatory responses are known. It has been recently accepted that vascular and smooth muscle pathology manifested in cardiovascular diseases is one of the inflammatory responses during atherosclerosis and hypertension. Interleukin-6 is one of the key cytokines which trigger the inflammation process. Over-expression of interleukin-6 in smooth muscle cells under pathological stimuli may further amplify the inflammatory lesions. The present compositions are designed to inhibit over-expression of cytokine production in smooth muscle cells (in particular, the interleukin-6). By inhibiting the expression of interleukin-6 in smooth muscle cells, the present compositions are believed to be a remedy alleviating the side-effects of estrogen replacement therapy in post-menopausal women.
(§1) The level of cellular vascular endothelium growth factor (VEGF) production is an indicator of a stimulation of neo-vascularization processes. A rate of cytokine synthesis and secretion into medium by culture cells was measured with a commercially available immunochemical assay kit. Cultured cells were seeded in 48 well plates in 0.5 mL of medium containing 10% FBS at concentration 40,000 cell/mL. […] The level of cytokines secreted into cell culture medium was measured using ELISA kits according to manufacturer's protocol (R&D Systems).

[4] = system: human breast cancer cells (MCF-7 cells); test: [3H]thymidine incorporation in human breast cancer cells (MCF-7); conditions: estrogen 20-500 nM; FIG. 4
[5] = system: VEGF release in human breast cancer cells (MCF-7 cells); test: VEGF release in human breast cancer cells (cytokine expression assay, ELISA); conditions: estrogen 10-100 nM; FIG. 6
Text: Measurement of VEGF (Vascular Endothelial Growth Factor) in Cancer Cells Rationale: New vascularization formation (i.e., neo-vascularization) within a tumor bed is essential to the tumor growth. Without the new blood vessel formulation, most tumors can only grow to approximately 1 mm in diameter because the supply of nutrient and oxygen to the growing tumor cells depends on the blood vessels around the tumor. A tumor has the ability to attract new blood vessel formation (neo-vascularization) by releasing a protein known as vascular endothelial growth factor (VEGF). It is desirable to inhibit the VEGF expression in cancer cells so as to prevent neo-vascularization and inhibit tumor growth. (See, Vascular Endothelial Cell Growth Factor (VEGF), an Emerging Target for Cancer Chemotherapy, Shinkaruk, et al., Current Medicinal Chemistry and Anti-Cancer Agents, 2003, Vol. 3, pages 95-117).
as §1, with “kit.” for “kit. Cultured cells were seeded in 48 well plates in 0.5 mL of medium containing 10% FBS at concentration 40,000 cell/mL.”

## estrogen
[1]
  [3H]thymidine incorporation in human smooth muscle cells: induce an increase
[2]
  human smooth muscle cell invasion: induce an increase
[3]
  interleukin-6 release in human smooth muscle cells: induce an increased
[4]
  [3H]thymidine incorporation in human breast cancer cells (MCF-7): induce an increase
[5]
  VEGF release in human breast cancer cells (MCF-7): induce an increased
